Tested on: 996289-038-R-J1-PDC spheroid viability
Experiment: Anticancer human tumor 996289-038-R-J1-PDC patient-derived colon adenocarcinoma cell line growth inhibition [PI3K]
Conditions: spheroids with HUVEC and MSC; for viability, T/C: stronger effect = lower value; active means viability on the fitted dose curve at most 10% of control; inactive means the rest
Source text: Combinatorial screen of targeted agents with the PI3K inhibitors inavolisib, alpelisib, duvelisib, and copanlisib in multi-cell type tumor spheroids
A high-throughput screen of multi-cell type tumor spheroids was designed to identify active combinations of targeted small molecules and PI3K pathway inhibitors. Complex spheroids include a stromal component modeled by human endothelial cells (HUVEC) and fibroblasts modeled by human mesenchymal stem cells (MSCs). The concentration ranges selected for each drug and investigational agent were based upon clinically achievable concentrations if the clinical Cmax of the agent was known.
Compounds. The drugs and investigational agents: inavolisib (NSC800729), alpelisib (NSC765974), duvelisib (NSC772469), copanlisib (NSC816437), ipatasertib (NSC767898), afuresertib (NSC778305), talazoparib (NSC767125), sapanisertib (NSC764658), selumetinib (NSC741078), tovorafenib (DAY101, NSC766906), vemurafenib (NSC761431), ravoxertinib (NSC781343), sotorasib (NSC818433), MRTX1133 (NSC 836407), abemaciclib (NSC 768073), palbociclib (NSC758247), venetoclax (NSC 766270), SY5609 (NSC837396), enzalutamide (NSC755605), and darolutamide (NSC825331), were obtained from the National Cancer Institute (NCI) Developmental Therapeutics Program Chemical Repository. The FDA-approved anticancer drug set is available from the NCI Developmental Therapeutics Program. […] The stock solutions were prepared in dimethyl sulfoxide (DMSO, Sigma-Aldrich, St. Louis, MO, cat. D2650) at 800-fold the tested concentration and stored at -70 degrees C prior to their use. All drugs and investigational agents were tested over a range starting from a high concentration at or near the clinical Cmax and decreasing in half-log increments. If the clinical Cmax for an agent had not been determined, the highest concentration tested was 10 microM.
Cell Culture. All cells were maintained in an incubator at 37 degrees C and 5% CO2 with 95% humidity. The PDC lines were cultured according to standard operating procedures established by the NCI PDMR (https://pdmr.cancer.gov/sops/default.htm). All PDCs were thawed and cultured in Matrigel-coated flasks prepared with a working solution of 1X Ham's F-12 nutrient mix, without supplementation (Invitrogen, Waltham, MA, cat. 11765054), 100 U/mL penicillin-streptomycin (Invitrogen, cat. 15140122), and 2.5% Matrigel (Corning Inc., Corning, NY, cat. 354248) for the first three passages. The 354836-022-R-J1-PDC, 475296-252-R-J1-PDC, and 997726-040-R-J2-PDC lines were cultured in 6A media, which includes advanced DMEM/F-12 (Thermo Fisher Scientific, cat. 12634028), 10 mM HEPES (Thermo Fisher Scientific, cat. 15630080), 1X GlutaMAX supplement (Thermo Fisher Scientific, cat. 35050061), 0.1 mg/mL primocin (InvivoGen, San Diego, CA, cat. ant-pm-2), 10% defined fetal bovine serum, heat inactivated (HyClone Laboratories Inc., Logan, UT, cat. SH30070.03HI), 50% L-WRN conditioned media (ATCC, cat. CRL-3276), 1.25 mM N-Acetyl-L-cysteine (Sigma-Aldrich, cat. A9165), 10 mM nicotinamide (Sigma-Aldrich, cat. N0636), 1X B-27 supplement (Thermo Fisher Scientific, cat. 17504044), 1X N-2 supplement (Thermo Fisher Scientific, cat. 17502048), and 10 microM Y-27632 dihydrochloride (Tocris Bioscience, Bristol, United Kingdom, cat. 1254). The 624824-186-R-J2-PDC line was cultured in 6C/Colon 1B media, which includes all 6A media components plus 50 ng/mL human EGF recombinant protein (Thermo Fisher Scientific, cat. PHG0311). […]
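Further: spheroids exposed to compounds for seven days before viability read.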
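Wherever viability, T/C is given: luminescence used as a proxy for viable cell amount; percent viability relative to DMSO vehicle control as 100%.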

CCN1CCN(Cc2ccc(Nc3ncc(F)c(-c4cc(F)c5nc(C)n(C(C)C)c5c4)n3)nc2)CC1 + Cc1nc(NC(=O)N2CCCC2C(N)=O)sc1-c1ccnc(C(C)(C)C(F)(F)F)c1
0.0376 µM: IC50 (curve of first compound, second compound 3.16 µM)
inactive: viability, T/C (second compound 0.0316 µM, first compound 0.00316 µM) 84.2% | viability, T/C (second compound 0.0316 µM, first compound 0.01 µM) 72% | viability, T/C (second compound 0.0316 µM, first compound 0.0316 µM) 83.4% | viability, T/C (second compound 0.0316 µM, first compound 0.1 µM) 78.7% | viability, T/C (second compound 0.0316 µM, first compound 0.316 µM) 72.7% | viability, T/C (second compound 0.0316 µM, first compound 1 µM) 79.7% | viability, T/C (second compound 0.1 µM, first compound 0.00316 µM) 89.8% | viability, T/C (second compound 0.1 µM, first compound 0.01 µM) 83% | viability, T/C (second compound 0.1 µM, first compound 0.0316 µM) 79.7% | viability, T/C (second compound 0.1 µM, first compound 0.1 µM) 75.4% | viability, T/C (second compound 0.1 µM, first compound 0.316 µM) 75.2% | viability, T/C (second compound 0.1 µM, first compound 1 µM) 67.3% | viability, T/C (second compound 0.316 µM, first compound 0.00316 µM) 85.9% | viability, T/C (second compound 0.316 µM, first compound 0.01 µM) 74.4% | viability, T/C (second compound 0.316 µM, first compound 0.0316 µM) 70.7% | viability, T/C (second compound 0.316 µM, first compound 0.1 µM) 63% | viability, T/C (second compound 0.316 µM, first compound 0.316 µM) 63.1% | viability, T/C (second compound 0.316 µM, first compound 1 µM) 59.2% | viability, T/C (second compound 1 µM, first compound 0.00316 µM) 75.8% | viability, T/C (second compound 1 µM, first compound 0.01 µM) 74.2% | viability, T/C (second compound 1 µM, first compound 0.0316 µM) 56.7% | viability, T/C (second compound 1 µM, first compound 0.1 µM) 54.8% | viability, T/C (second compound 1 µM, first compound 0.316 µM) 58.4% | viability, T/C (second compound 1 µM, first compound 1 µM) 50.9% | viability, T/C (second compound 3.16 µM, first compound 0.00316 µM) 51.4% | viability, T/C (second compound 3.16 µM, first compound 0.01 µM) 56.2% | viability, T/C (second compound 3.16 µM, first compound 0.0316 µM) 51.4% | viability, T/C (second compound 3.16 µM, first compound 0.1 µM) 46.1% | viability, T/C (second compound 3.16 µM, first compound 0.316 µM) 43.7% | viability, T/C (second compound 3.16 µM, first compound 1 µM) 44.2% | viability, T/C (second compound 10 µM, first compound 0.00316 µM) 37.5% | viability, T/C (second compound 10 µM, first compound 0.01 µM) 40% | viability, T/C (second compound 10 µM, first compound 0.0316 µM) 33.9% | viability, T/C (second compound 10 µM, first compound 0.1 µM) 33.6% | viability, T/C (second compound 10 µM, first compound 0.316 µM) 29.6% | viability, T/C (second compound 10 µM, first compound 1 µM) 27.9%
> 1 µM: IC50 (curve of first compound, second compound 0.0316 µM) | IC50 (curve of first compound, second compound 0.1 µM) | IC50 (curve of first compound, second compound 0.316 µM) | IC50 (curve of first compound, second compound 1 µM)
< 0.00316 µM: IC50 (curve of first compound, second compound 10 µM)

CC(C)NCC(C(=O)N1CCN(c2ncnc3c2C(C)CC3O)CC1)c1ccc(Cl)cc1 (centres undefined)
inactive: viability, T/C (compound 0.0316 µM) 106% [middle of 4 runs] | viability, T/C (compound 0.1 µM) 86.8% [middle of 4 runs] | viability, T/C (compound 0.316 µM) 99.8% [middle of 4 runs] | viability, T/C (compound 1 µM) 94.2% [middle of 4 runs] | viability, T/C (compound 3.16 µM) 88% [middle of 4 runs] | viability, T/C (compound 10 µM) 78.7% [middle of 4 runs]
> 10 µM: IC50 (curve of compound)
